EC50, IC50 and T1/2 data for 6 compounds are collected here from ChEMBL document CHEMBL4118102 (J Med Chem, 2018).

Test [1] relates to Influenza A virus. Nature of the test: Antiviral activity against Influenza A virus (A/Fukui/45/04(H3N2)) infected in MDCK cells assessed as reduction in plaque formation measured after 3 days post infection by neutral red staining-based assay. The format is functional, organism-based, Influenza A virus (A/Fukui/45/2004(H3N2)). To be noted: 72 h.
In test [2] the target is Neuraminidase (Influenza A virus (A/Memphis/1/1971(H3N2)), UniProt P03471). Also on record: species or system Influenza A virus (A/Fukui/45/2004(H3N2)).
Test [3] concerns the target T1, Neuraminidase (Influenza A virus, UniProt B4URF0).
The target of test [4] is Neuraminidase (Influenza B virus) (UniProt Q3S340). To be noted: Influenza B virus (B/Perth/211/2001).
For test [5], the target named is Neuraminidase (Influenza A virus (A/Memphis/1/1971(H3N2)), UniProt P03471). Also on record: species or system Influenza A virus (A/Fukui/45/2004(H3N2)). The source holds these as a separate data set.
In test [6] the target is T1, Neuraminidase. This is another data set of the same source.
The target in test [7] is T1, Neuraminidase. The source holds these as a separate data set.
For test [8], the target named is T1, Neuraminidase. This is another data set of the same source.
The subject of the next test is Influenza B virus. Nature of the test: Antiviral activity against Influenza B virus (B/Perth/211/2001) infected in MDCK cells assessed as reduction in plaque formation measured after 3 days post infection by neutral red staining-based assay. The class given is functional, organism-based. Particulars: 72 h.
For test [9], the target named is T2, Neuraminidase (Influenza A virus, UniProt A5Z252). Also on record: species or system Influenza A virus (A/chicken/Bangli/BBVD-563/2007(H5N1)), clade 2.
Test [10] deals with T1, Neuraminidase. The source holds these as a separate data set.
Test [11] deals with T1, Neuraminidase. The source holds these as a separate data set.
Test [12] deals with T2, Neuraminidase. Also on record: species or system Influenza A virus (A/chicken/Bangli/BBVD-563/2007(H5N1)), clade 2. This is another data set of the same source.
The target of test [13] is Neuraminidase (Influenza A virus) (UniProt A5Z252). Particulars: Influenza A virus (A/chicken/Bangli/BBVD-563/2007(H5N1)); clade 2.
For test [14], the target named is T1, Neuraminidase. This is another data set of the same source.
In test [15] the target is T3, Neuraminidase (Influenza B virus, UniProt Q3S340). More on the design: species or system Influenza B virus (B/Perth/211/2001).
Test [16] addresses Neuraminidase (Influenza A virus (A/Memphis/1/1971(H3N2))) (UniProt P03471). To be noted: Influenza A virus (A/Fukui/45/2004(H3N2)).
In test [17] the target is Neuraminidase (Influenza A virus) (UniProt B4URF0). To be noted: A/Mississippi/03/01 (H1N1).
Test [18] has the same target. To be noted: A/swine/Shepparton/6/2009 (H1N1).
For test [19] the target is unchanged. Particulars: A/chicken/Vietnam/08/2004 (H5N1) clade 1.
Test [20] deals with Influenza A virus. In words: Antiviral activity against Influenza A virus (A/Mississippi/03/01 (H1N1)) infected in MDCK cells assessed as reduction in plaque formation measured after 3 days post infection by neutral red staining-based assay. The format is functional, organism-based. To be noted: 72 h.
The target of test [21] is T3, Neuraminidase. Also on record: species or system Influenza B virus (B/Perth/211/2001). This is another data set of the same source.
Test [22] addresses T1, Neuraminidase. The source holds these as a separate data set.
In test [23] the test system is Influenza A virus. Nature of the test: Antiviral activity against Influenza A virus (A/Victoria/503/06) infected in MDCK cells assessed as reduction in plaque formation measured after 3 days post infection by neutral red staining-based assay. The format is functional, organism-based.
[24] abbreviates: Influenza A virus, A/Victoria/503/06, MDCK, 72 h.

T3 sequence (Q3S340 whole entry): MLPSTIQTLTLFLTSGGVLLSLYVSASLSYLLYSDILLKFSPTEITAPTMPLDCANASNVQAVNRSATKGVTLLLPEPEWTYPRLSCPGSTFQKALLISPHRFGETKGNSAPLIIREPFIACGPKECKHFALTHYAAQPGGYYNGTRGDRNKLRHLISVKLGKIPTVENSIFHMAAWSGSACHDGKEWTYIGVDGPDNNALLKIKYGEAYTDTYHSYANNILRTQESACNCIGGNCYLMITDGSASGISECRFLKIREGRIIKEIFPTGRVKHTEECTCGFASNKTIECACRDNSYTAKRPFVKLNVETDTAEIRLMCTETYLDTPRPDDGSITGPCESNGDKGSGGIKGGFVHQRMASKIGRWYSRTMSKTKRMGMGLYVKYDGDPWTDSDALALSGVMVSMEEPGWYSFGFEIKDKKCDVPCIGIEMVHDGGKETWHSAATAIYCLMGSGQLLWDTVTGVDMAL
Chain of Neuraminidase (Influenza B virus) (Q3S340 as listed by the source): as the sequence (Q3S340 whole entry) above
Chain of Neuraminidase (Influenza A virus (A/Memphis/1/1971(H3N2))) (P03471 whole entry): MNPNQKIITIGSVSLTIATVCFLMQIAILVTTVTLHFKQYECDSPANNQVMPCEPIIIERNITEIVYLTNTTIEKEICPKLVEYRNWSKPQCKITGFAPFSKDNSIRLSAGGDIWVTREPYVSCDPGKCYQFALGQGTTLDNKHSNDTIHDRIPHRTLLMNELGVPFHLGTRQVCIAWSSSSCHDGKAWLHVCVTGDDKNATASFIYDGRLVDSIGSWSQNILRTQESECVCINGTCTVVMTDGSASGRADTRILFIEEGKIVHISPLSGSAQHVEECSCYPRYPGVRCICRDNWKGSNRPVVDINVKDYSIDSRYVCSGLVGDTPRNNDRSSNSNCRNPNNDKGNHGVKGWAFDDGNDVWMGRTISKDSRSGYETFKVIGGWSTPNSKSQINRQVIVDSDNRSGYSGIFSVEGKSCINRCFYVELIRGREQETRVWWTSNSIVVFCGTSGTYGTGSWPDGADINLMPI
Chain of Neuraminidase (Influenza A virus (A/Memphis/1/1971(H3N2)), UniProt P03471) (P03471 whole entry): as above

On to `CC(=O)N[C@@H]1C[C@@H](F)[C@](F)(C(=O)O)O[C@H]1[C@H](O)[C@H](O)CO`, for which the EC50 (as a rule, the midpoint of the concentration-response curve) with Influenza A virus [1] stood at 100 µM; in the test on Influenza B virus, 1 µM; in the test with Influenza A virus [20], 1 µM; in the test on Influenza A virus [23] (setting [24]), 10 µM. The IC50 (commonly the concentration needed to halve the response being measured) in test [2] was 0.318 µM; against Neuraminidase [3] it was 0.048 µM; in test [5], 0.313 µM; at Neuraminidase [6] it was 0.49 µM; at Neuraminidase [7], 0.428 µM; at Neuraminidase [8], 0.49 µM. For the same compound, the IC50 against Neuraminidase [9] was found to be 0.535 µM; against Neuraminidase [10] it was 0.985 µM; against Neuraminidase [11] it was 0.474 µM; against Neuraminidase [12] it was 0.583 µM; on Neuraminidase [14], 1.4 µM; at Neuraminidase [15], 0.027 µM. Moreover, the results for the IC50 on Neuraminidase [21] and against Neuraminidase [22] were 0.076 µM and 0.069 µM, respectively. For the same compound, the T1/2 in test [4] is 29.2 min; in [13], 10.6 min; in test [16], 13.4 min; in [17], 26.7 min; in test [18] it was 11.6 min; in test [19] it was 13.7 min.

Take `CC(=O)N[C@@H]1[C@@H](O)[C@@H](F)[C@](F)(C(=O)O)O[C@H]1[C@H](O)[C@H](O)CO`: the EC50 with Influenza A virus [1] was 100 µM; in the test with Influenza B virus, 1 µM; in the test with Influenza A virus [20] it was 1 µM; in the test on Influenza A virus [23] (setting [24]), 100 µM. For the same compound, the T1/2 in test [4] was 43.6 min; in test [13] it was 8.5 min; in test [16], 17.6 min; in [17], 24.8 min; in [18], 11.8 min; in [19] it was 12 min. For the same compound, the IC50 on Neuraminidase [9] amounted to 0.889 µM; against Neuraminidase [12], 0.863 µM; against Neuraminidase [15], 0.065 µM; on Neuraminidase [21], 0.414 µM.

Consider `CC(=O)N[C@H]1[C@H]([C@H](O)[C@H](O)CO)OC(C(=O)O)=C[C@@H]1NC(=N)N` [ZANAMIVIR], for which the EC50 in the test with Influenza A virus [1] was 0.1 µM; in the test with Influenza B virus, 0.01 µM; with Influenza A virus [20] it was not above 0.001 µM; with Influenza A virus [23] (setting [24]) it was 0.0001 to 0.001 µM. For the same compound, in test [13], the T1/2 was determined as 72.8 min.

As for `CC(=O)N[C@@H]1[C@@H](O)[C@@H](F)[C@](F)(C(=O)O)O[C@H]1[C@H](O)CCO`, the EC50 in the test on Influenza A virus [1] was not below 100 µM; with Influenza B virus it was 10 to 100 µM; in the test with Influenza A virus [20], 10 µM; in the test with Influenza A virus [23] (setting [24]), not below 100 µM. Also, the IC50 in test [2] worked out at 5.01 µM; at Neuraminidase [3] it was 8.29 µM; in test [5], 28.7 µM; against Neuraminidase [6], 22 µM; against Neuraminidase [7] it was 25.8 µM; against Neuraminidase [8], 22.4 µM. For the same compound, the IC50 against Neuraminidase [9] was 28.2 µM; against Neuraminidase [10], 21.7 µM; against Neuraminidase [11] it was 25.8 µM; against Neuraminidase [12], 24.5 µM; at Neuraminidase [14] it was 17 µM; at Neuraminidase [21] it was 7.62 µM. On Neuraminidase [22], this compound came in with a half-maximal inhibitory concentration (IC50) of 2.61 µM. In addition, the T1/2 in test [4] stood at 186 min; in test [13], 23.6 min; in test [16], 25.1 min; in test [17] it was 30.4 min; in test [18] it was 17.8 min; in [19], 19.4 min.

`CC(=O)N[C@@H]1[C@@H](O)[C@@H](F)[C@](F)(C(=O)O)O[C@H]1C[C@H](O)CO`: the EC50 was 10 to 100 µM in the test on Influenza A virus [1], 1 to 10 µM in the test with Influenza B virus, 0.1 to 1 µM in the test with Influenza A virus [20] and 10 µM in the test on Influenza A virus [23] (mdck). Also, the T1/2 in [4] was 68.7 min; in test [13] it was 12.3 min; in test [16], 13.9 min; in test [17], 29.2 min; in test [18], 15.8 min; in test [19] it was 15 min. Moreover, the IC50 on Neuraminidase [15] stood at 0.04 µM; against Neuraminidase [21], 0.228 µM.

Turning to `CC(=O)N[C@@H]1[C@@H](O)[C@@H](F)[C@](F)(C(=O)O)O[C@H]1[C@H](O)[C@@H](C)O`, the T1/2 in test [4] was more than 240 min; in test [13], 16.9 min; in test [16], 29.7 min; in test [17], 37.5 min; in [18] it was 24.5 min; in [19] it was 17.2 min. Besides, the values for the EC50 in the test with Influenza B virus, in the test with Influenza A virus [20] and with Influenza A virus [23] (setting [24]) were 10 to 100 µM, 10 to 100 µM and not below 100 µM, respectively. Also, on Neuraminidase [21], the IC50 is 9.19 µM.
